Source: patent publication US12201613B2 (priority 2020, dated 2025)

Columns and labels:
[1] = tested on: SARS-CoV-2 (SARS-CoV-2/human/TWN/CGMH-CGU-01/2020); format: cell-based
[2] = tested on: lysozyme-coated Pd-NTF electrodes; experiment: Binding selectivity of S-protein to lysozyme-coated Pd-NTF electrode (EIS); details: presence of peptide analogue
Description: (iii) lysozyme-coated Pd-electrode in the absence of peptide analogues; or […]

[3] = target: T1, SARS-CoV-2 S-protein-ACE2 binding (Homo sapiens, UniProt Q9BYF1, K631R); experiment: EIS-based biosensing platform (ACE2-Pd-NTFE): modulation of S-protein-ACE2 binding; set-up: species or system SARS-CoV-2; human; details: for suppression of S-protein-ACE2 interaction / maximum binding efficacy / ECmax S-protein (S-protein-ACE2 interaction at maximum S-protein concentration): 4 μg/mL ACEi; for suppression of S-protein-ACE2 interaction / maximum binding efficacy: at maximum S-protein concentration; for ECmax S-protein (S-protein-ACE2 interaction at maximum S-protein concentration): baseline 99.5%±11.0% (104.2%±4.8% for ramiprilat); for modulation effect on the S-protein-ACE2 binding: dose-dependent, 0.1 to 4 μg/mL
T1 construct: made in house

[4] = Binding selectivity of S-protein to plain Pd-NTF electrode (EIS); details: presence of peptide analogue

| SMILES | E gene RNA in the media increased by [1] | effect on binding patterns of S-protein to the lysozyme-coated Pd-NTF electrode [2] | E gene RNA copies in the culture media reduced by [1] | suppression of S-protein-ACE2 interaction / maximum binding efficacy [3] | ECmax S-protein (S-protein-ACE2 interaction at maximum S-protein concentration) [3] | modulation effect on the S-protein-ACE2 binding [3] | effect on binding patterns of S-protein to the bare Pd-NTF electrode [4] | effect on S-protein-ACE2 binding at highest dose ([3]; 4 μg/mL) |
| --- | --- | --- | --- | --- | --- | --- | --- | --- |
| CCOC(=O)[C@H](CCc1ccccc1)N[C@@H](C)C(=O)N1CCC[C@H]1C(=O)O [enalapril] | 93.7% | – | – | – | – | – | – | – |
| C[C@H](N[C@@H](CCc1ccccc1)C(=O)O)C(=O)N1CCC[C@H]1C(=O)O [enalaprilat] | 44.4% | – | – | – | – | – | – | – |
| NCCCC[C@H](N[C@@H](CCc1ccccc1)C(=O)O)C(=O)N1CCC[C@H]1C(=O)O [lisinopril] | 54.2% | did not change the binding patterns | – | – | – | – | – | – |
| CCOC(=O)[C@H](CCc1ccccc1)N[C@@H](C)C(=O)N1[C@H](C(=O)O)C[C@@H]2CCC[C@@H]21 [ramipril] | – | – | 39.3% | approximately 42% | 57.1±11.4% | dose-dependent and non-competitive inhibition | – | – |
| CCC[C@H](N[C@@H](C)C(=O)N1[C@H](C(=O)O)C[C@@H]2CCCC[C@@H]21)C(=O)OCC [perindopril] | – | – | approximately 18.8% | approximately 48% | 51.9±5.3% | dose-dependent and non-competitive inhibition | – | – |
| CCC[C@H](N[C@@H](C)C(=O)N1[C@H](C(=O)O)C[C@@H]2CCCC[C@@H]21)C(=O)O [perindoprilat] | – | did not change the binding patterns | ~20.1% | 67% | 33.0±3.7% | antagonism effect is significantly enhanced | did not change the binding patterns | – |
| C[C@H](CS)C(=O)N1CCC[C@H]1C(=O)O [captopril] | 34.5% | – | – | – | – | – | – | – |
| C[C@H](N[C@@H](CCc1ccccc1)C(=O)O)C(=O)N1[C@H](C(=O)O)C[C@@H]2CCC[C@@H]21 [ramiprilat] | – | – | 36.4% | 72% | 27.6±7.5% | antagonism effect is significantly enhanced | – | Near full inhibition |
